This is an account of results in ChEMBL document CHEMBL1126513, “Quinuclidine-based NK-1 antagonists I: 3-benzyloxy-1-azabicyclo[2.2.2]octanes” (Bioorg Med Chem Lett, 1993).

Where only a bound is given, the exact number is not on record here.

Substance-P receptor, sequence (P25103 whole entry): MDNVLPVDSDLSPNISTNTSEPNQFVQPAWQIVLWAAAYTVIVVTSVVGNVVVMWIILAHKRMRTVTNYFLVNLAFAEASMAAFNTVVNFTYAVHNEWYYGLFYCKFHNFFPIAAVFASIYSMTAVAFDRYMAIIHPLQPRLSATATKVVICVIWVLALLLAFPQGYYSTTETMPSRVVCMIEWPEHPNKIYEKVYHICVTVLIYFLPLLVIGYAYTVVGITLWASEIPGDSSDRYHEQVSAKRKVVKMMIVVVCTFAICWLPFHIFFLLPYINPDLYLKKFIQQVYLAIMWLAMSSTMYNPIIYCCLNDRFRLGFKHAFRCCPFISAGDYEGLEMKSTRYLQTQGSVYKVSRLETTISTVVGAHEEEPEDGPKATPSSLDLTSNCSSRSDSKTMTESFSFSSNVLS

This experiment addresses Substance-P receptor (Homo sapiens, UniProt P25103). As to the kind of experiment: Displacement of [125]Substance P Binding from human Neurokinin NK1 receptor in CHO Cells.
Take `O=C(Nc1ccccc1)O[C@H]1C2CCN(CC2)[C@H]1C(c1ccccc1)c1ccccc1`: the IC50 is > 1000 nM.

Compound `Cc1ccc(CO[C@H]2C3CCN(CC3)[C@H]2C(c2ccccc2)c2ccccc2)cc1C` had an IC50 of 197 nM.

With `S=C(Nc1ccccc1)N[C@H]1C2CCN(CC2)[C@H]1C(c1ccccc1)c1ccccc1`, the half-inhibitory concentration (IC50) was > 1000 nM.

On to `Cc1ccc(CO[C@H]2C3CCN(CC3)[C@H]2C(c2ccccc2)c2ccccc2)cc1`, for which the IC50 was 290 nM.

As for `O=S(=O)(N[C@H]1C2CCN(CC2)[C@H]1C(c1ccccc1)c1ccccc1)c1ccccc1`, the IC50 was > 1000 nM.

As to `Cc1ccc(C)c(CO[C@H]2C3CCN(CC3)[C@H]2C(c2ccccc2)c2ccccc2)c1`, the IC50 was determined as 48 nM.

With `O=C(Nc1ccccc1)N[C@H]1C2CCN(CC2)[C@H]1C(c1ccccc1)c1ccccc1`, the concentration for half-maximal inhibition (IC50) is > 1000 nM.

`Cc1cc(C)cc(CO[C@H]2C3CCN(CC3)[C@H]2C(c2ccccc2)c2ccccc2)c1` [L-706125] showed an IC50 of 1 nM.

Regarding `Cc1ccccc1CO[C@H]1C2CCN(CC2)[C@H]1C(c1ccccc1)c1ccccc1`, the IC50 came out at 183 nM.

With `O=C(N[C@H]1C2CCN(CC2)[C@H]1C(c1ccccc1)c1ccccc1)Oc1ccccc1`, the IC50 was > 1000 nM.

Regarding `c1ccc(CCN[C@H]2C3CCN(CC3)[C@H]2C(c2ccccc2)c2ccccc2)cc1`, the IC50 was determined as 700 nM.

`c1ccc(CN[C@H]2C3CCN(CC3)[C@H]2C(c2ccccc2)c2ccccc2)cc1`: the IC50 stood at 150 nM.

With `O=C(N[C@H]1C2CCN(CC2)[C@H]1C(c1ccccc1)c1ccccc1)c1ccccc1`, the IC50 was > 1000 nM.

Compound `c1ccc(CO[C@H]2C3CCN(CC3)[C@H]2C(c2ccccc2)c2ccccc2)cc1` showed a 50% inhibitory concentration (IC50) of 110000 nM.

With `Cc1cccc(CO[C@H]2C3CCN(CC3)[C@H]2C(c2ccccc2)c2ccccc2)c1`, the IC50 was 21 nM.
